Results from PubChem BioAssay AID256 (DTP/NCI, 2004).
“And” between values parts separate entries of the source, which are not always exact repeats. Equal values may be shown once. Inconclusive results and toxic doses are left out. How the source made its calls: active means survival T/C of 150% or more; inactive means T/C below 125% in these data.

Test system: CD2F1 mice, L1210 leukemia ip, survival T/C
Test: NCI In Vivo Anticancer Drug Screen. Data for tumor model L1210 Leukemia (intraperitoneal) in CD2F1 (CDF1) mice
Conditions: higher = longer survival
Procedure, shortened: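 In this screen, transplantable tumors were grown in mice given either the compound or its vehicle. Results were expressed as the treated measurement relative to the control measurement.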

[1] = endpoint: mean survival time, dose: 100.0 mg/kg/injection, schedule: Q01DX001 (ip), vehicle: saline with Tween-80
[2] = endpoint: mean survival time, dose: 100.0 mg/kg/injection, schedule: Q04DX003 (ip), vehicle: saline with Tween-80
[3] = endpoint: mean survival time, dose: 200.0 mg/kg/injection, schedule: Q04DX003 (ip), vehicle: saline with Tween-80
[4] = endpoint: mean survival time, dose: 400.0 mg/kg/injection, schedule: Q04DX003 (ip), vehicle: saline with Tween-80

Measured: T/C

CC(C)(C)OC1C2C=CC1C=C2 (stereo not given)
inactive: [1] 100 % of control | endpoint: mean survival time, dose: 200.0 mg/kg/injection, schedule: Q01DX001 (ip), vehicle: saline with Tween-80 91 % of control | endpoint: mean survival time, dose: 400.0 mg/kg/injection, schedule: Q01DX001 (ip), vehicle: saline with Tween-80 88 % of control

CCCCCC(C(O)C#N)C(O)(C(F)(F)F)C(F)(F)F (stereo not given)
inactive: endpoint: mean survival time, dose: 100.0 mg/kg/injection, schedule: Q04DX003 (ip), vehicle: Klucel (hydroxypropylcellulose) (HPC) 96 % of control | endpoint: mean survival time, dose: 200.0 mg/kg/injection, schedule: Q04DX003 (ip), vehicle: Klucel (hydroxypropylcellulose) (HPC) 96 % of control | endpoint: mean survival time, dose: 400.0 mg/kg/injection, schedule: Q04DX003 (ip), vehicle: Klucel (hydroxypropylcellulose) (HPC) 90 % of control

FC(F)(F)c1ccc2c(c1)Nc1ccccc1S2
inactive: endpoint: mean survival time, dose: 12.5 mg/kg/injection, schedule: Q04DX003 (ip), vehicle: saline 96 % of control and 98 % of control | endpoint: mean survival time, dose: 25.0 mg/kg/injection, schedule: Q04DX003 (ip), vehicle: saline 96 % of control and 101 % of control | endpoint: mean survival time, dose: 50.0 mg/kg/injection, schedule: Q04DX003 (ip), vehicle: saline 101 % of control and 104 % of control | endpoint: mean survival time, dose: 100.0 mg/kg/injection, schedule: Q04DX003 (ip), vehicle: saline 101 % of control and 104 % of control | endpoint: mean survival time, dose: 200.0 mg/kg/injection, schedule: Q04DX003 (ip), vehicle: saline 96 % of control and 98 % of control

COC12C(COC(=O)NCCO)C3=C(C(=O)C(C)=C(N)C3=O)N1CC1NC12 (stereo not given)
inactive: endpoint: mean survival time, dose: 1.56 mg/kg/injection, schedule: Q01DX009 (ip), vehicle: Klucel (hydroxypropylcellulose) (HPC) 112 % of control | endpoint: mean survival time, dose: 3.12 mg/kg/injection, schedule: Q01DX009 (ip), vehicle: Klucel (hydroxypropylcellulose) (HPC) 114 % of control and 106 % of control | endpoint: mean survival time, dose: 6.25 mg/kg/injection, schedule: Q01DX009 (ip), vehicle: Klucel (hydroxypropylcellulose) (HPC) 115 % of control and 120 % of control | endpoint: mean survival time, dose: 12.5 mg/kg/injection, schedule: Q01DX009 (ip), vehicle: Klucel (hydroxypropylcellulose) (HPC) 115 % of control | endpoint: mean survival time, dose: 50.0 mg/kg/injection, schedule: Q01DX009 (ip), vehicle: Klucel (hydroxypropylcellulose) (HPC) 114 % of control | endpoint: mean survival time, dose: 222.0 mg/kg/injection, schedule: Q01DX001 (ip), vehicle: carboxymethylcellulose (CMC) 89 % of control

CC(=O)Nc1ccccc1C(C)=O
inactive: endpoint: mean survival time, dose: 100.0 mg/kg/injection, schedule: Q01DX009 (ip), vehicle: saline with Tween-80 110 % of control | endpoint: mean survival time, dose: 200.0 mg/kg/injection, schedule: Q01DX009 (ip), vehicle: saline with Tween-80 109 % of control

CCCCCC/C=C\C(=O)O
inactive: endpoint: mean survival time, dose: 50.0 mg/kg/injection, schedule: Q01DX009 (ip), vehicle: saline 101 % of control | endpoint: mean survival time, dose: 100.0 mg/kg/injection, schedule: Q01DX009 (ip), vehicle: saline 97 % of control | [2] 98 % of control | endpoint: mean survival time, dose: 200.0 mg/kg/injection, schedule: Q01DX009 (ip), vehicle: saline 93 % of control | [3] 93 % of control | [4] 87 % of control

[O-]/[N+](=C\Cc1ccccc1)c1ccccc1
inactive: endpoint: mean survival time, dose: 100.0 mg/kg/injection, schedule: Q04DX002 (ip), vehicle: saline with Tween-80 90 % of control | endpoint: mean survival time, dose: 200.0 mg/kg/injection, schedule: Q04DX002 (ip), vehicle: saline with Tween-80 87 % of control | endpoint: mean survival time, dose: 400.0 mg/kg/injection, schedule: Q04DX002 (ip), vehicle: saline with Tween-80 90 % of control

CCOC(=O)C(OCc1ccccc1)(C(=O)N1CCCCCC1=O)C(C)C (stereo not given)
inactive: [2] 100 % of control | [3] 105 % of control | [4] 96 % of control

NC(=O)C[n+]1cccc(C(=O)Nc2ccccc2)c1
inactive: endpoint: mean survival time, dose: 100.0 mg/kg/injection, schedule: Q01DX009 (ip), vehicle: saline sonified 95 % of control | endpoint: mean survival time, dose: 200.0 mg/kg/injection, schedule: Q01DX009 (ip), vehicle: saline sonified 89 % of control

COc1cccc2c1C(=O)c1c(O)c3c(c(O)c1C2=O)C[C@@](O)(C(=O)CO)C[C@@H]3OC1CC(OC(C)=O)C(OC(C)=O)C(C)O1 (stereo not given in full)
active: endpoint: mean survival time, dose: 6.25 mg/kg/injection, schedule: Q01DX009 (ip), vehicle: distilled water + Tween-80 167 % of control | endpoint: mean survival time, dose: 12.5 mg/kg/injection, schedule: Q01DX009 (ip), vehicle: distilled water + Tween-80 153 % of control and 203 % of control | endpoint: median survival time, dose: 6.25 mg/kg/injection, schedule: Q01DX009 (ip), vehicle: distilled water + Tween-80 158 % of control and 176 % of control | endpoint: median survival time, dose: 12.5 mg/kg/injection, schedule: Q01DX009 (ip), vehicle: distilled water + Tween-80 226 % of control and 250 % of control
inactive: endpoint: mean survival time, dose: 1.56 mg/kg/injection, schedule: Q01DX009 (ip), vehicle: distilled water + Tween-80 115 % of control | endpoint: mean survival time, dose: 3.12 mg/kg/injection, schedule: Q01DX009 (ip), vehicle: distilled water + Tween-80 122 % of control | endpoint: mean survival time, dose: 25.0 mg/kg/injection, schedule: Q01DX009 (ip), vehicle: distilled water + Tween-80 93 % of control and 100 % of control | endpoint: median survival time, dose: 1.56 mg/kg/injection, schedule: Q01DX009 (ip), vehicle: distilled water + Tween-80 113 % of control | endpoint: median survival time, dose: 25.0 mg/kg/injection, schedule: Q01DX009 (ip), vehicle: distilled water + Tween-80 120 % of control and 95 % of control

O=[N+]([O-])c1ccc(S(=O)(=O)C/C=C/CCl)c([N+](=O)[O-])c1
inactive: endpoint: mean survival time, dose: 25.0 mg/kg/injection, schedule: Q01DX009 (ip), vehicle: saline with Tween-80 102 % of control | endpoint: mean survival time, dose: 50.0 mg/kg/injection, schedule: Q01DX009 (ip), vehicle: saline with Tween-80 95 % of control | [1] 94 % of control
